The values below come from patent US20240368157A1, “FORMS AND COMPOSITIONS OF A JAK2 INHIBITOR” (Ajax Therapeutics, Inc., priority 2023, published 2024).

In data set [1] the target is T1, JAK3 (Homo sapiens, UniProt P52333).
T1 construct: made in house; host or cells: E. coli (BL21-derived, T7 phage display) or HEK-293
T1 sequence (P52333 1-1124): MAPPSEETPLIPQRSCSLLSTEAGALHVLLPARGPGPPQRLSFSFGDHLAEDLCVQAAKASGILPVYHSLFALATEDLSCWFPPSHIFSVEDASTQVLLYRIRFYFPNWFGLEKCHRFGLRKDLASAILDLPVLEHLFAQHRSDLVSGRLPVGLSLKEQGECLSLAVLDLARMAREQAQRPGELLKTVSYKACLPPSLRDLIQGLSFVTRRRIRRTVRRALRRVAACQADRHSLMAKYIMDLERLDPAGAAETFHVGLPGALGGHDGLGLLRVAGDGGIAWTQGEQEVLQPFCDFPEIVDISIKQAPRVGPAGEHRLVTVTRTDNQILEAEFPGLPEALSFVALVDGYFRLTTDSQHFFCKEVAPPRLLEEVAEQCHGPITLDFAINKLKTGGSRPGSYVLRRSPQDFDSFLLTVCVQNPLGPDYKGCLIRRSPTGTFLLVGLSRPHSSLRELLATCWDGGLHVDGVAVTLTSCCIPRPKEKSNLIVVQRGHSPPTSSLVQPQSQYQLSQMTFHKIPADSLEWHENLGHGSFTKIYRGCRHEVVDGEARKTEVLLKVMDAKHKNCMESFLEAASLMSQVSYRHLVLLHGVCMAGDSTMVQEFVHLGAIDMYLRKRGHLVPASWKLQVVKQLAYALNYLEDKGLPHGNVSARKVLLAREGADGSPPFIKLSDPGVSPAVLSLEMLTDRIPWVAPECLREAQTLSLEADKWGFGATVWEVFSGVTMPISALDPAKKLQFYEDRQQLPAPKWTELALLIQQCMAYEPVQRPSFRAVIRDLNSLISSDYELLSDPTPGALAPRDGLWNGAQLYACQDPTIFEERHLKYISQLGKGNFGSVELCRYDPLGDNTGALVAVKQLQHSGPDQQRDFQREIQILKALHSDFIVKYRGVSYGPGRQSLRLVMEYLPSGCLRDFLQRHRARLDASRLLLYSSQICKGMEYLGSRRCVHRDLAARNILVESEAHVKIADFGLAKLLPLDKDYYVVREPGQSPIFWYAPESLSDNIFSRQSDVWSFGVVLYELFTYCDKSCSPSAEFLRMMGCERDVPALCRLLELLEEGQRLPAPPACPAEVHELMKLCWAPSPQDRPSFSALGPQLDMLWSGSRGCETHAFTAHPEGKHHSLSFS
Put plainly: JAK Family Selectivity Assay (JAK3 vs JAK2 binding affinity). As to conditions: selectivity over JAK2. Here is the method:
(§1) Provided compounds are evaluated for selectivity by comparing their JAK2 binding affinity (Kd) in the above JAK2 Binding Assay with their binding affinity (Kd) for one or more other kinases. Binding affinity for other kinases is determined as follows: Kinase-tagged T7 phage strains are prepared in an E. coli host derived from the BL21 strain. E. coli are grown to log-phase and infected with T7 phage and incubated with shaking at 32° C. until lysis. The lysates are centrifuged and filtered to remove cell debris. The remaining kinases are produced in HEK-293 cells and subsequently tagged with DNA for qPCR detection. Streptavidin-coated magnetic beads are treated with biotinylated small molecule ligands for 30 minutes at room temperature to generate affinity resins for kinase assays. The liganded beads are blocked with excess biotin and washed with blocking buffer (SeaBlock (Pierce), 1% BSA, 0.05% Tween 20, 1 mM DTT) to remove unbound ligand and to reduce non-specific binding. Binding reactions are assembled by combining kinases, liganded affinity beads, and test compounds in 1× binding buffer (20% SeaBlock, 0.17×PBS, 0.05% Tween 20, 6 mM DTT). Test compounds are prepared as 111× stocks in 100% DMSO. Kds are determined using an 11-point 3-fold compound dilution series with three DMSO control points. […] The kinase concentration in the eluates is measured by qPCR. […]

The target in data set [2] is T2, JAK1 (Homo sapiens, UniProt P23458).
T2 construct: made in house; host or cells: E. coli (BL21-derived, T7 phage display) or HEK-293
Description: JAK Family Selectivity Assay (JAK1 vs JAK2 binding affinity). The settings on record: selectivity over JAK2. Here is the method:
as §1

A short description of data set [3]: Interconversion slurry experiments. The settings on record: slurry EtOH:H2O (90:10), 65° C.; material with small peak at ˜8.0 °2θ.
Description: Mixtures of Form H and Form I with Form B were utilized in these interconversion slurry experiments. […] The interconversion slurries were performed at ambient and elevated (65° C.) temperatures in various solvents and solvent mixtures.
Data set [4] concerns the target T3, JAK2 (JH1domain-catalytic, Y1007F, Y1008F) kinase (Homo sapiens, UniProt O60674, Y1007F/Y1008F).
T3 construct: JAK2 (JH1domain-catalytic, Y1007F, Y1008F) kinase was expressed as N-terminal fusion; made in house; host or cells: transiently transfected HEK293 cells
Description: JAK2 Binding Assay. Here is the method: JAK2 (JH1domain-catalytic, Y1007F, Y1008F) kinase was expressed as N-terminal fusion to the DNA binding domain of NFkB in transiently transfected HEK293 cells and subsequently tagged with DNA for qPCR detection. Streptavidin-coated magnetic beads were treated with biotinylated small molecule ligands for 30 minutes at room temperature to generate affinity resins for kinase assays. The liganded beads were blocked with excess biotin and washed with blocking buffer (SeaBlock (Pierce), 1% BSA, 0.05% Tween 20, 1 mmol/L DTT) to remove unbound ligand and to reduce nonspecific phage binding. Binding reactions were assembled by combining kinases, liganded affinity beads, and test compounds in 1× binding buffer (1×PBS, 0.05% Tween 20, 0.1% BSA, 1 mmol/L DTT). Test compound was prepared as 111× stocks in 100% DMSO and directly diluted into the assay wells. All reactions were performed in polypropylene 384-well plates in a final volume of 0.02 mL. The assay plates were incubated at room temperature with shaking for 1 hour and the affinity beads were washed with wash buffer (1×PBS, 0.05% Tween 20). The beads were then re-suspended in elution buffer (1×PBS, 0.05% Tween 20, 0.5 μmol/L non-biotinylated affinity ligand) and incubated at room temperature with shaking for 30 minutes. The kinase concentration in the eluate was measured by qPCR.

T2 sequence (P23458 whole entry): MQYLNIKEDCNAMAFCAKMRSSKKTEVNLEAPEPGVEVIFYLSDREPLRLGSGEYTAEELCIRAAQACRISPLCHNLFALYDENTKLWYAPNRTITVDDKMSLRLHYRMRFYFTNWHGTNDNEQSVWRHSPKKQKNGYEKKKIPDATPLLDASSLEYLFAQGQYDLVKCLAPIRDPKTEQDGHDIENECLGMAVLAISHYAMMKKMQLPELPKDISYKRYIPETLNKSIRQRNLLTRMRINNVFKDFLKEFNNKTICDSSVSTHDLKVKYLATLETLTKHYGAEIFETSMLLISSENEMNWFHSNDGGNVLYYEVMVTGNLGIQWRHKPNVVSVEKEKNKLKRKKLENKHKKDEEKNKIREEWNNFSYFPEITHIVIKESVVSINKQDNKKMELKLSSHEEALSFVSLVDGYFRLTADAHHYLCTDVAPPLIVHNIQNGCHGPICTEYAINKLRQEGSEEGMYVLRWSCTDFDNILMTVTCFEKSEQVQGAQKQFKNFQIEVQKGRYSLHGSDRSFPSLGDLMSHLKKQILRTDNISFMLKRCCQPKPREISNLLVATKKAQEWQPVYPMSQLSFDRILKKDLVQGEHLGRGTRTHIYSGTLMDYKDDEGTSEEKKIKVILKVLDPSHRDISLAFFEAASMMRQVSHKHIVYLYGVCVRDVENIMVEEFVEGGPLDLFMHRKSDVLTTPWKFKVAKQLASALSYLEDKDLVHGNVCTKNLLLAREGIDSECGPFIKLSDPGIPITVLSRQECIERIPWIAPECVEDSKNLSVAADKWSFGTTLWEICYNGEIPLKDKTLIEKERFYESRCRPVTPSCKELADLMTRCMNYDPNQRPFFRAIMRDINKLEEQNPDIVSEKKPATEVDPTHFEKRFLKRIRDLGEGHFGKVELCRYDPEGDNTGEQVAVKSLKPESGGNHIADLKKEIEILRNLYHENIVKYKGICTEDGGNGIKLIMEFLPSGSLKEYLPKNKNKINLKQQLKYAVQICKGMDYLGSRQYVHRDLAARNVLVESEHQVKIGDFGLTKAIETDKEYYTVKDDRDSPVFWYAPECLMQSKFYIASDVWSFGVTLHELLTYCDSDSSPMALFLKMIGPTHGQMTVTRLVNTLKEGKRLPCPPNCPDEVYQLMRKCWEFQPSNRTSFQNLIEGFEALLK
T3 sequence (O60674 849-1124 Y1007F/Y1008F limits assumed): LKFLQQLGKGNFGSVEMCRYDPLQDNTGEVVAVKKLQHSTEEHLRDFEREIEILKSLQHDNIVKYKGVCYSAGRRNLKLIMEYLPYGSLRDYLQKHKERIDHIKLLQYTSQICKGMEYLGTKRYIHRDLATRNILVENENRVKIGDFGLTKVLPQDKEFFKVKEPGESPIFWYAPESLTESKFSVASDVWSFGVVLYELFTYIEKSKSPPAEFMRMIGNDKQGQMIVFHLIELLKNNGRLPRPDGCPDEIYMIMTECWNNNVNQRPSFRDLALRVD

As usually defined, the Kd is the concentration at which binding is half-saturated. Low values mean tighter binding, high ones weaker binding. `CN(C)C(=O)Nc1cc(Oc2cnc3nc(Nc4cc(C(F)(F)F)cn(C)c4=O)n(C)c3c2C#N)ccn1` [Compound 1, 3-(4-((7-cyano-1-methyl-2-((1-methyl-2-oxo-5-(trifluoromethyl)-1,2-dihydropyridin-3-yl)amino)-1H-imidazo[4,5-b]pyridin-6-yl)oxy)pyridin-2-yl)-1,1-dimethylurea]: the “JAK3/JAK2 Kd/Kd ratio” value in data set [1] is reported as “A (Kd/Kd ratio≥1000)”. Also, the “JAK1/JAK2 Kd/Kd ratio” value in data set [2] is “B (Kd/Kd ratio<1000 and ≥300)”. Besides, in data set [3], the “degradation by HPLC analysis” value is “small amount of degradation”. Moreover, in data set [4], the Kd was under 0.01 µM.
In the case of `CCN1CCN(Cc2ccc(Nc3nc4ccc(Oc5ccnc(NC(C)=O)c5)cc4n3C)cc2C(F)(F)F)CC1` [Compound R-1, reference compound], the “JAK3/JAK2 Kd/Kd ratio” value in data set [1] is listed as “A (Kd/Kd ratio≥1000)”. Also, the “JAK1/JAK2 Kd/Kd ratio” value in data set [2] was “C (Kd/Kd ratio<300 and ≥100)”.
